Measured values taken from patent US20220347266A1, “METHOD AND MEDICINE FOR TREATING DEPRESSIVE DISORDERS” (QINGDAO PRIMEDICINE PHARMACEUTICAL CO., LTD., priority 2018, published 2022).
Where no end group is shown, it is not given here.

Assays:
C57 mice = experiment: Forced swim test (FST) of mice, behavioral despair model of depressive disorder; assay type: in vivo, mouse; details: for immobility time of forced swimming mice: vs vehicle, FIG. 1
Source text: Among the behavioral despair models, forced swim test of mice/rats is the most common animal model of depressive disorder to evaluate the effect of antidepressants. In this model, animals are forced to swim in water in a limited space. After struggling for many times but failing to escape, the animals may stop swimming and begin floating without struggling to escape anymore. This immobility is considered as the manifestation of behavioral despair and depression. This model has good predictive validity for antidepressants.
By using ketamine metabolite HNK as a positive control medication, the effect of compound PMS-001 on depression-like behavior of C57 mice was investigated through forced swim test 1 hour and 24 hours after single medicinal intervention. […]; (SEQ ID NO: 3). Wherein the amino acid sequence YGRKKRRQRRR (SEQ ID NO: 2), also known as Tat peptide, is a carrier peptide, and can assist the polypeptide in penetration of the blood-brain barrier. […] However, it is unknown in the art whether a C-terminal polypeptide of GluR2 such as YKEGYNVYG (SEQ ID NO: 1) can be used in the treatment of depressive disorder, specifically major depressive disorder.
The experimental animals were 6-week-old male C57 mice obtained from Shanghai SLAC Laboratory Animal Co., Ltd, with body weight of […]. They were transported to the Animal Breeding Center of Shanghai Institute of Materia Medica, Chinese Academy of Sciences (Animal production license: SCXK9 [Shanghai] 2004-0002, use license: SYXK [Shanghai] 2003-0029), and allowed to acclimatize in animal facilities for more than 3 days, with 6 individuals per cage. Mice were housed at room temperature (23±0.2° C.), with a 12 h/12 h light/dark cycle. Before the behavioral test, animals were moved to the behavior testing room 2 hours in advance for acclimation to relieve tension. […]
24 hours before administration, each mouse was placed into a cylinder tank for acclimation in the water environment for 10 min. […] Mice were videotaped for 6 minutes since being placed into water, and the immobility time for the last 4 minutes was calculated due to the fact that most animals were very active in the first two minutes (the criteria for immobility: mice stop struggling, keep immobility and make small movements to balance their bodies or float in water). […]
All data analyses were performed with spss 22 data processing software. […] Data were expressed as Mean±SEM. *: p<0.05; **: p<0.01; ***: p<0.001.

AMPAR = details: from EP1,687,427B1; cited from earlier work

Sequence | immobility time of forced swimming mice (C57 mice; 1 hour after administration, single 10 mg/kg intraperitoneal injection) | immobility time of forced swimming mice (C57 mice; 24 hours after administration, single 10 mg/kg intraperitoneal injection) | antidepressant effect compared to positive control HNK (C57 mice; same dose (10 mg/kg i.p.)) | onset of antidepressant effect after administration (C57 mice; single 10 mg/kg intraperitoneal injection) [h] | inhibition of NMDA-mediated excessive endocytosis of AMPAR (AMPAR)
YGRKKRRQRRRYKEGYNVYG [PMS-001] | very significantly decrease | very significantly decrease | better rapid and lasting antidepressant effect | 1 | –
YKEGYNVYG (Artificially synthesized GluR2-3Y peptide) | – | – | – | – | proved to inhibit
